The values below come from patent US7892350B2, “Sacrificial agents for fly ash concrete” (Boral Material Technologies Inc., priority 2003, dated 2011).

The nature of this test: Second sacrificial agent testing protocol: paste air measurements with DDBS (0.0125 wt %) and rating. As to Overall performance rating (second protocol rating): key: 0: Fail; 1: Poor; 2: Good; 3: Preferred; 4: Most preferred. As to SA Rating (0-4): key: 0: Fail; 1: Poor; 2: Good; 3: Preferred; 4: Most preferred. Here is the method: The second sacrificial agents evaluation protocol has been designed to assess the relative potential value of candidate sacrificial agents with a maximum of five paste air measurements.
The first two measurements (of entrained air) are carried out with a standard AEA in a portland cement paste and in a FA:cement paste; these two tests provide reference values which can be used for the relative assessment of a series of sacrificial agents. The other three paste air measurements pertain to the properties and effectiveness of the sacrificial agents.
1. Measurement of the air entrained by a standard air-entraining admixture in a cement paste of fixed composition and fluidity; the latter is a reference system which provides ‘reference’ air entrainment values (‘A’ in FIG. 8).
2. […] The difference between ‘B’ and ‘A’ in FIG. 8 is the reduction in air entrainment due to the presence of the fly ash; this is illustrated as ‘C’ in FIG. 8.
In the present SA testing and evaluation protocol, the fly ash selected should remain the same for the entire set of additives tested, in order to provide reliable relative performance ranking. For the present series of test, the Fly Ash selected was the one identified as B1 in Table 1 below; the physico-chemical properties of this fly ash are reported in Table 1.
In testing for the relative performance of the sacrificial agent, the sacrificial agent dosage was chosen in the range 0-0.1 wt %, which corresponds to typical dosage values observed in paste, mortar and concrete tests reported in Tables 2, 3 and 4 and Tables 7 to 34.
3. Measurement of the air entrainment of the SA, by itself, in a cement-only paste at a dosage of 0.1 wt %; this is illustrated as ‘D’ in FIG. 8.
4. Measurement of the air entrained by DDBS in the FA-cement paste comprising 0.05% wt SA, under the same conditions as described in 2 above. The air entrainment value observed in this system, compared to that observed in the absence of the SA, yields the air recovery due to the SA, and is illustrated schematically as ‘E’ in FIG. 8.
5. Same as in 4 above, but with a higher SA concentration at 0.1 wt %; the air entrainment observed, again compared to the value observed in the absence of the SA, yields a second value of air recovery by the SA and is illustrated as ‘F’ in FIG. 8.
For the relative performance rating of the group of products chosen as potential SA and listed in Table 36, the following rating scheme (Tables A and B) was adopted (referring to FIG. 8 and quantities defined therein):
1: Chemical name of compound tested as potential sacrificial agent • Col. 2: Level of air entrainment by the candidate sacrificial agent, at a concentration of 0.1 wt %, in a Portland cement paste ([…]) • Col. […] 5: Sacrificial agent overall rating index (described below) • Col. 6: Hydrophilic-Lipophilic Balance (HLB) values of candidate sacrificial agent (source and significance of HLB data given below) • Col. 7: Logarithm of the Oil(octanol)/water partition coefficient (Kow) of the candidate sacrificial agents (source and significance of data given below).

[1] abbreviates: Portland cement paste (PCA), […].
Setting [2] is: sacrificial agent overall rating index.
[3] abbreviates: B1 FA/cement paste, 0.0125 wt % DDBS, 0.05 wt % SA.
Where [4] appears, read: B1 FA/cement paste, 0.0125 wt % DDBS, 0.10 wt % SA.
The mark [5] stands for this setting: sum of ratings of air entrainment recovery by 0.05% and 0.1% SA, DDBS 0.0125 wt %, 50:50 B1 fly ash:cement paste.

Read-outs that look alike come from different tables or passages of the source.

As to `Cc1ccc(S(=O)(=O)O)cc1` [p-Toluene Sulfonic acid], the “Overall performance rating (second protocol rating)” value (“Overall performance rating” below) is on record as 3. Also, for the setting “B1 FA/cement paste, […]”, the “B1 + 0.0125% DDBS + 0.05% SA (air entrainment)” value (from here on “B1 + 0.0125% DDBS + 0.05% SA”) is 3.9 and the “B1 + 0.0125% DDBS + 0.1% SA (air entrainment)” value (“B1 + 0.0125% DDBS + 0.1% SA” below) is on record as 5.1. The “PCA + 0.1% SA (level of air entrainment by the candidate sacrificial agent)” value (from here on “PCA + 0.1% SA”) under setting [1] is reported as 0.7. Under setting [2], the “SA Rating (0-4)” value was determined as 3.
Turning to `CC(O)CN(CC(C)O)CC(C)O` (stereo not shown) [Tri-isopropanolamine], under “B1 FA/cement paste, […]”, the “B1 + 0.0125% DDBS + 0.05% SA” value was found to be 5.6 and the “B1 + 0.0125% DDBS + 0.1% SA” value is recorded as 7.6. In addition, under setting [1], the “PCA + 0.1% SA” value was determined as 1.3. In addition, under setting [2], the “SA Rating (0-4)” value is 4.
For the molecule `CC(C)(C)O` [tert-Butanol], where the note is “B1 FA/cement paste, […]”, the “B1 + 0.0125% DDBS + 0.05% SA” value turned out to be 6.3 and the “B1 + 0.0125% DDBS + 0.1% SA” value is given as 7.0. Moreover, the “PCA + 0.1% SA” value under setting [1] amounted to 0.8. Also, the “SA Rating (0-4)” value under setting [2] worked out at 4.
`OCCO` [Ethylene Glycol]: the “B1 + 0.0125% DDBS + 0.05% SA” value amounted to 2.4, the “B1 + 0.0125% DDBS + 0.1% SA” value amounted to 2.8, the “PCA + 0.1% SA” value is 0.0 and the “SA Rating (0-4)” value was 0.
As for `O=C(O)CCCCC(=O)O` [Adipic acid], for the setting “B1 FA/cement paste, […]”, the “B1 + 0.0125% DDBS + 0.05% SA” value was found to be 1.9 and the “B1 + 0.0125% DDBS + 0.1% SA” value was determined as 2.2. Besides, the “PCA + 0.1% SA” value under setting [1] is given as 0.2. In addition, the “SA Rating (0-4)” value under setting [2] was found to be 0.
The matching figures for `CC#N` [Acetonitrile]: 2.3, 2.5, 0.5 and 0.
In the case of `CCC(C)=O` [2-Butanone], the “Overall performance rating” value is reported as 1.
For `CCC(O)CC` [3-Pentanol], the “B1 + 0.0125% DDBS + 0.05% SA” value under setting [3] turned out to be 6.1. For the same molecule, the “B1 + 0.0125% DDBS + 0.1% SA” value under setting [4] came to 6.3. In addition, the “PCA + 0.1% SA” value under setting [1] was 0.5. Further, the “SA Rating (0-4)” value under setting [2] worked out at 4. The “Overall performance rating” value under setting [5] is 4.
In the case of `CC(O)CO` (stereo not shown) [Propylene Glycol], where the note is “B1 FA/cement paste, […]”, the “B1 + 0.0125% DDBS + 0.05% SA” value is reported as 3.0 and the “B1 + 0.0125% DDBS + 0.1% SA” value was 3.6. Moreover, the “PCA + 0.1% SA” value under setting [1] came out at 0.5. Also, under setting [2], the “SA Rating (0-4)” value was determined as 0.
Consider `CCN(CC)CC` [Triethylamine], for which the “B1 + 0.0125% DDBS + 0.05% SA” value is 5.2, the “B1 + 0.0125% DDBS + 0.1% SA” value is listed as 5.1, the “Overall performance rating” value turned out to be 4 and the “PCA + 0.1% SA” value amounted to 0.5. Further, the “SA Rating (0-4)” value amounted to 4.
With Polypropylene glycol 425, the “Overall performance rating” value under setting [5] came out at 4.
`CCCC[N+](CCCC)(CCCC)CCCC.[Cl-]` [Tetrabutyl ammonium chloride]: the “B1 + 0.0125% DDBS + 0.05% SA” value is 4.9, the “B1 + 0.0125% DDBS + 0.1% SA” value worked out at 4.1, the “Overall performance rating” value is 3 and the “PCA + 0.1% SA” value is given as 0.6. Also, the “SA Rating (0-4)” value is recorded as 3.
With POE (20) Sorbitan monolaurate [Tween®], the “Overall performance rating” value under setting [5] turned out to be 4.
Turning to `OCCNCCO` [Di-ethanolamine], for the setting “B1 FA/cement paste, […]”, the “B1 + 0.0125% DDBS + 0.05% SA” value is 2.7 and the “B1 + 0.0125% DDBS + 0.1% SA” value was found to be 2.6. Moreover, under setting [1], the “PCA + 0.1% SA” value was found to be 0.3. For the same molecule, the “SA Rating (0-4)” value under setting [2] was determined as 0.
The like results for `CCCCCCCC/C=C\CCCCCCCC(=O)O` [Oleic acid] were, in that order, 2.2, 1.9, 2.1 and 0.
For `C=CN1CCCC1=O` [n-Vinyl-2-pyrrolidinone], the “Overall performance rating” value is recorded as 1. Further, under “B1 FA/cement paste, […]”, the “B1 + 0.0125% DDBS + 0.05% SA” value is 3.7 and the “B1 + 0.0125% DDBS + 0.1% SA” value amounted to 4.3. Further, under setting [1], the “PCA + 0.1% SA” value was 2.8. In addition, the “SA Rating (0-4)” value under setting [2] turned out to be 1.
In the case of `CO` [Methanol], for the setting “B1 FA/cement paste, […]”, the “B1 + 0.0125% DDBS + 0.05% SA” value is 1.9 and the “B1 + 0.0125% DDBS + 0.1% SA” value is reported as 2.2. Further, the “PCA + 0.1% SA” value under setting [1] came to 0.6. Further, under setting [2], the “SA Rating (0-4)” value was 0.
`CCCO` [n-Propanol]: the “B1 + 0.0125% DDBS + 0.05% SA” value was 3.5, the “B1 + 0.0125% DDBS + 0.1% SA” value is 4.4, the “Overall performance rating” value was determined as 1 and the “PCA + 0.1% SA” value is 2.0. The “SA Rating (0-4)” value is 1.
With `CC1COC(=O)O1` (stereo not shown) [Propylene carbonate], the “B1 + 0.0125% DDBS + 0.05% SA” value under setting [3] is on record as 2.5. Also, under setting [4], the “B1 + 0.0125% DDBS + 0.1% SA” value is 2.9. Besides, the “PCA + 0.1% SA” value under setting [1] is listed as 0.4. Further, the “SA Rating (0-4)” value under setting [2] came out at 0.
Turning to `CCOC(=O)CC` [Ethylpropionate], under setting [3], the “B1 + 0.0125% DDBS + 0.05% SA” value is 4.9. Also, under setting [4], the “B1 + 0.0125% DDBS + 0.1% SA” value came out at 4.6. In addition, the “PCA + 0.1% SA” value under setting [1] is listed as 0.9. The “SA Rating (0-4)” value under setting [2] was determined as 3. Under setting [5], the “Overall performance rating” value worked out at 3.
With `CCC(C)O` (stereo not shown) [2-Butanol], the “B1 + 0.0125% DDBS + 0.05% SA” value was found to be 6.0, the “B1 + 0.0125% DDBS + 0.1% SA” value worked out at 6.6, the “Overall performance rating” value worked out at 4 and the “PCA + 0.1% SA” value is recorded as 1.4. In addition, the “SA Rating (0-4)” value turned out to be 4.
Turning to `C[N+](C)(C)Cc1ccccc1.[OH-]` [Benzyltrimethyl ammonium hydroxide], under setting [3], the “B1 + 0.0125% DDBS + 0.05% SA” value is given as 2.3. Under setting [4], the “B1 + 0.0125% DDBS + 0.1% SA” value is given as 3.0. Besides, the “PCA + 0.1% SA” value (Portland cement paste (PCA), 0.1 wt % SA, no DDBS) is 1.0. The “SA Rating (0-4)” value under setting [2] came to 0.
Regarding Polyethylene glycol 2000, the “Overall performance rating” value under setting [5] is 4.
For the molecule `Nc1c(O)cc(S(=O)(=O)[O-])c2ccccc12.[Na+]`, the “B1 + 0.0125% DDBS + 0.05% SA” value under setting [3] came out at 3.1. The “B1 + 0.0125% DDBS + 0.1% SA” value under setting [4] was determined as 2.9. Also, the “PCA + 0.1% SA” value under setting [1] was determined as 0.4. The “SA Rating (0-4)” value under setting [2] came to 0.
Take `CCCCNC(N)=O` [n-butyl urea]: under setting [3], the “B1 + 0.0125% DDBS + 0.05% SA” value was 5.3. Besides, the “B1 + 0.0125% DDBS + 0.1% SA” value under setting [4] came to 7.5. Further, the “PCA + 0.1% SA” value under setting [1] is on record as 2.1. Further, the “SA Rating (0-4)” value under setting [2] stood at 4. The “Overall performance rating” value under setting [5] came out at 4.
Take `CC(C)(C)CO` [Neopentanol]: the “Overall performance rating” value is listed as 3. For the same molecule, under “B1 FA/cement paste, […]”, the “B1 + 0.0125% DDBS + 0.05% SA” value was found to be 4.9 and the “B1 + 0.0125% DDBS + 0.1% SA” value amounted to 4.7. Further, the “PCA + 0.1% SA” value under setting [1] was 0.8. Further, the “SA Rating (0-4)” value under setting [2] amounted to 3.
For `CCCC(=O)OCC` [Ethylbutyrate], the “Overall performance rating” value was determined as 3. Under “B1 FA/cement paste, […]”, the “B1 + 0.0125% DDBS + 0.05% SA” value amounted to 5.2 and the “B1 + 0.0125% DDBS + 0.1% SA” value came to 4.3. Under setting [1], the “PCA + 0.1% SA” value is recorded as 0.7. In addition, the “SA Rating (0-4)” value under setting [2] is 3.
Regarding `CC(O)CN(CC(C)O)CC(C)O` (stereo not shown) [Tri-iso-propanolamine], the “Overall performance rating” value came to 4.
As for `CN1CCCC1=O` [1-Methyl-2-Pyrrolidinone], the “B1 + 0.0125% DDBS + 0.05% SA” value under setting [3] came out at 3.6. Also, under setting [4], the “B1 + 0.0125% DDBS + 0.1% SA” value stood at 3.8. Moreover, under setting [1], the “PCA + 0.1% SA” value is 1.9. In addition, the “SA Rating (0-4)” value under setting [2] came to 0.
